How the values were obtained:
[1] = system: Rhipicephalus (Boophilus) microplus; experiment: In vitro injection test with Rhipicephalus (Boophilus) microplus (BOOPMI Inj); conditions: 168 h, laid fertile eggs after 7 days, read-out: acaricidal activity; for pest or weed control at 0.00016 mg: dose 0.16 μg/animal injected; for pest or weed control at 0.0008 mg: dose 0.8 μg/animal injected
Procedure: In Vitro Injection Test with Rhipicephalus (Boophilus) Microplus (BOOPMI Inj)
To produce an appropriate mixture for injection, the test substance was dissolved and diluted in dimethyl sulphoxide to the desired concentration. 1 μl of the test mixture was injected into the abdomen of each of 5 engorged adult female cattle ticks (Rhipicephalus (Boophilus) microplus). The ticks were transferred into petri dishes and maintained in a climate-controlled room [28° C., 85% rel. hum.].
Acaricidal activity against cattle ticks was assessed after 7 days by assessment of laid fertile eggs. […] An acaricidal activity of 100% means that none of the ticks laid eggs or laid eggs were infertile; 0% means that the ticks laid eggs, and all the eggs were fertile.

Rhipicephalus sanguineus = experiment: In vitro contact test with adult hard ticks (Rhipicephalus sanguineus); conditions: read-out: acaricidal activity; for pest or weed control at 0.2 µg/cm2, 0.2 µg/cm2: dose 0.2 μg/cm^2, 48 h; for pest or weed control at 1 µg/cm2, 1 µg/cm2: dose 1 μg/cm^2, 48 h
Procedure: (§1) In Vitro Contact Tests with Adult Hard Ticks
(§2) In vitro contact tests with ticks were conducted with adult males and females of Rhipicephalus sanguineus, Ixodes ricinus, or Dermacentor variabilis, or nymphs of Amblyomma americanum.
(§3) For the coating of the test vials, the test substance was dissolved and diluted in acetone p.a. to the desired concentration. The solution was then homogeneously applied to the inner wall and base of a glass vial by turning and rocking on an orbital shaker until complete evaporation of the solvent. For example, with a 900 ppm solution of test substance, an area-based dose of 5 μg/cm^2 was achieved.
(§4) After the solvent was completely evaporated, 5-10 adult ticks were put in each coated test vial, which was then sealed with a perforated plastic lid and incubated in a horizontal position in the dark at room temperature and ambient humidity (Rhipicephalus sanguineus) or in a climate-controlled cabinet (Ixodes ricinus, Dermacentor variabilis, Amblyomma americanum [21° C., 85% rel. hum.]). Acaricidal activity against the respective tick species was determined after 48 h. For this, ticks were collected to the base of the test vial by gentle knocking, and test vials were then incubated on a hotplate at 45-50° C. for no longer than 5 min. Ticks which remained motionless on the base of the test vial or moved uncoordinated without deliberately climbing up to avoid the heat were considered dead or moribund, respectively.
(§5) A substance was judged to have good acaricidal activity against the respective tick species when at least 80% of ticks were found dead or moribund at a dose of the substance of g/cm^2. An acaricidal activity of 100% means all ticks were dead or moribund. An acaricidal activity of 0% means none of the ticks was found dead or moribund.

Ctenocephalides felis [2] = experiment: In vitro contact test with fleas; conditions: read-out: insecticidal activity; for pest or weed control at 0.2 µg/cm2, 0.2 µg/cm2: dose 0.2 μg/cm^2, dead or moribund fleas after 48 h; for pest or weed control at 1 µg/cm2, 1 µg/cm2: dose 1 μg/cm^2, dead or moribund fleas after 48 h
Procedure: In Vitro Contact Tests with Fleas
In vitro contact tests with fleas were conducted with adult male and female cat fleas (Ctenocephalides felis).
as §3, with “To coat” for “For the coating of”, “tubes,” for “vials,”, “tube” for “vial”
Upon complete evaporation of the solvent, 5-10 adult cat fleas (Ctenocephalides felis) were added to each coated tube, which was then sealed with a perforated plastic lid and incubated in a horizontal position at room temperature and ambient humidity. After 48 h, insecticidal activity against fleas was determined. For this, fleas were collected to the base of the tube by knocking the tube, and the tube was allowed to stand upright. Fleas which remained motionless at the base or moved in an uncoordinated manner were considered dead or moribund, respectively.
A substance was judged to have good insecticidal activity against Ctenocephalides felis when at least 80% of the fleas were found dead or moribund at a dose of the substance of μg/cm^2. 100% insecticidal activity means that all the fleas were found dead or moribund. 0% insecticidal activity means that no fleas were found dead or moribund.

Dermacentor variabilis = experiment: In vitro contact test with adult hard ticks (Dermacentor variabilis); conditions: read-out: acaricidal activity; for pest or weed control at 1 µg/cm2, 1 µg/cm2: dose 1 μg/cm^2, 48 h
Procedure: as §1, §2, §3, §4, §5

Ctenocephalides felis [3] = experiment: Ctenocephalides felis in-vitro feeding test with fleas (CTECFE oral); conditions: 48 hours, read-out: insecticidal feeding activity; for pest or weed control at 0.8 ppm: dose 0.8 ppm in citrated cattle blood; for pest or weed control at 4 ppm: dose 4 ppm in citrated cattle blood
Procedure: Ctenocephalides felis In-Vitro Feeding Test with Fleas (CTECFE Oral)
To prepare a test blood mixture for feeding fleas, the test substance was dissolved in dimethyl sulphoxide and diluted with citrated cattle blood to the desired concentration.
To assemble the test set-up, about 20 unfed adult male and female cat fleas
(Ctenocephalides felis) were placed in a chamber which was closed at the top and bottom with gauze. A metal cylinder was sealed at one end with parafilm membrane, placed with the sealed base onto the chamber, and filled with the test blood mixture, which could be imbibed by the fleas through the parafilm membrane. The assembled test set-up was maintained at about 37° C. After 48 hours, the insecticidal feeding activity against fleas was determined. 100% means that all of the fleas were killed; 0% means that none of the fleas was killed.

Amblyomma americanum = experiment: In vitro contact test with hard ticks (Amblyomma americanum nymphs); conditions: dose 1 μg/cm^2, 48 h, read-out: acaricidal activity
Procedure: as §1, §2, §3, §4, §5

For `CN(C(=O)c1ccc(C#N)cc1)c1cccc(C(=O)Nc2c(Br)cc(C(F)(C(F)(F)F)C(F)(F)F)cc2C(F)(F)F)c1F` [Compound 17], the pest or weed control at 32 ng ([1]; dose 0.032 μg/animal injected) was 100%, the pest or weed control at 0.00016 mg [1] was 100% and the pest or weed control at 0.0008 mg [1] was 100%. The pest or weed control at 0.04 µg/cm2, 0.04 µg/cm2 (Rhipicephalus sanguineus; dose 0.04 μg/cm^2, 48 h) was 90%, the pest or weed control at 0.2 µg/cm2, 0.2 µg/cm2 (Rhipicephalus sanguineus) was 90% and the pest or weed control at 1 µg/cm2, 1 µg/cm2 (Rhipicephalus sanguineus) was 90%. For the same compound, the pest or weed control at 0.04 µg/cm2, 0.04 µg/cm2 (Ctenocephalides felis [2]; dose 0.04 μg/cm^2, dead or moribund fleas after 48 h) was 95%, the pest or weed control at 0.2 µg/cm2, 0.2 µg/cm2 (Ctenocephalides felis [2]) was 95% and the pest or weed control at 1 µg/cm2, 1 µg/cm2 (Ctenocephalides felis [2]) was 95%. It also gave a pest or weed control at 0.2 µg/cm2, 0.2 µg/cm2 (Dermacentor variabilis; dose 0.2 μg/cm^2, 48 h) of 90%, a pest or weed control at 1 µg/cm2, 1 µg/cm2 (Dermacentor variabilis) of 90% and a pest or weed control at 0.0064 ppm (Ctenocephalides felis [3]; dose 0.0064 ppm in citrated cattle blood) of 95%. For the same compound, the pest or weed control at 0.032 ppm (Ctenocephalides felis [3]; dose 0.032 ppm in citrated cattle blood) was 95%, the pest or weed control at 0.16 ppm (Ctenocephalides felis [3]; dose 0.16 ppm in citrated cattle blood) was 95% and the pest or weed control at 0.8 ppm (Ctenocephalides felis [3]) was 95%. For the same compound, the pest or weed control at 4 ppm (Ctenocephalides felis [3]) was 95%.
In the case of `CN(C(=O)c1ccc([N+](=O)[O-])cc1)c1cccc(C(=O)Nc2c(Br)cc(C(F)(C(F)(F)F)C(F)(F)F)cc2C(F)(F)F)c1` [Compound 5], the pest or weed control at 0.00016 mg [1] was 100%, the pest or weed control at 0.0008 mg [1] was 100% and the pest or weed control at 0.2 µg/cm2, 0.2 µg/cm2 (Ctenocephalides felis [2]) was 95%. It also gave a pest or weed control at 1 µg/cm2, 1 µg/cm2 (Ctenocephalides felis [2]) of 95%, a pest or weed control at 1 µg/cm2, 1 µg/cm2 (Dermacentor variabilis) of 90% and a pest or weed control at 4 ppm (Ctenocephalides felis [3]) of 95%.
`CN(C(=O)c1ccc(C#N)cc1)c1cccc(C(=O)Nc2c(Br)cc(C(F)(C(F)(F)F)C(F)(F)F)cc2OC(F)(F)F)c1` [Compound 10] was tested, and the pest or weed control at 0.00016 mg [1] was 100%, the pest or weed control at 0.0008 mg [1] was 100% and the pest or weed control at 1 µg/cm2, 1 µg/cm2 (Rhipicephalus sanguineus) was 90%. It also gave a pest or weed control at 0.2 µg/cm2, 0.2 µg/cm2 (Ctenocephalides felis [2]) of 95%, a pest or weed control at 1 µg/cm2, 1 µg/cm2 (Ctenocephalides felis [2]) of 95% and a pest or weed control at 4 ppm (Ctenocephalides felis [3]) of 95%.
`CN(C(=O)c1ccc(C#N)cc1)c1cccc(C(=O)Nc2c(Br)cc(C(F)(C(F)(F)F)C(F)(F)F)cc2C(F)(F)F)c1` [Compound 4] gave a pest or weed control at 1 µg/cm2, 1 µg/cm2 (Amblyomma americanum) of 90%, a pest or weed control at 0.0008 mg [1] of 100% and a pest or weed control at 0.2 µg/cm2, 0.2 µg/cm2 (Ctenocephalides felis [2]) of 95%. The pest or weed control at 1 µg/cm2, 1 µg/cm2 (Ctenocephalides felis [2]) was 95%.
`N#Cc1ccc(C(=O)Nc2cccc(C(=O)Nc3c(Br)cc(C(F)(C(F)(F)F)C(F)(F)F)cc3C(F)(F)F)c2)cc1` [Compound 3] showed a pest or weed control at 1 µg/cm2, 1 µg/cm2 (Amblyomma americanum) of 90%, a pest or weed control at 0.0008 mg [1] of 100% and a pest or weed control at 0.2 µg/cm2, 0.2 µg/cm2 (Rhipicephalus sanguineus) of 90%. It also gave a pest or weed control at 1 µg/cm2, 1 µg/cm2 (Rhipicephalus sanguineus) of 90%, a pest or weed control at 0.2 µg/cm2, 0.2 µg/cm2 (Ctenocephalides felis [2]) of 95% and a pest or weed control at 1 µg/cm2, 1 µg/cm2 (Ctenocephalides felis [2]) of 95%. For the same compound, the pest or weed control at 4 ppm (Ctenocephalides felis [3]) was 95%.
`N#Cc1ccc(C(=O)Nc2cccc(C(=O)Nc3c(I)cc(C(F)(C(F)(F)F)C(F)(F)F)cc3C(F)(F)F)c2)cc1` [Compound 19] gave a pest or weed control at 1 µg/cm2, 1 µg/cm2 (Amblyomma americanum) of 90%, a pest or weed control at 0.00016 mg [1] of 100% and a pest or weed control at 0.0008 mg [1] of 100%. For the same compound, the pest or weed control at 0.2 µg/cm2, 0.2 µg/cm2 (Rhipicephalus sanguineus) was 90%, the pest or weed control at 1 µg/cm2, 1 µg/cm2 (Rhipicephalus sanguineus) was 90% and the pest or weed control at 0.2 µg/cm2, 0.2 µg/cm2 (Ctenocephalides felis [2]) was 95%. For the same compound, the pest or weed control at 1 µg/cm2, 1 µg/cm2 (Ctenocephalides felis [2]) was 95%, the pest or weed control at 0.8 ppm (Ctenocephalides felis [3]) was 95% and the pest or weed control at 4 ppm (Ctenocephalides felis [3]) was 95%.
Work on `O=C(Nc1cccc(C(=O)Nc2c(Br)cc(C(F)(C(F)(F)F)C(F)(F)F)cc2OC(F)(F)F)c1)c1ccc(Cl)cc1` [Compound 2] yielded a pest or weed control at 1 µg/cm2, 1 µg/cm2 (Amblyomma americanum) of 90% and a pest or weed control at 0.0008 mg [1] of 100%.
For `O=C(Nc1c(I)cc(C(F)(C(F)(F)F)C(F)(F)F)cc1C(F)(F)F)c1cccc(NC(=O)c2ccc(Cl)cc2Br)c1` [Compound 42], the pest or weed control at 0.00016 mg [1] was 100%, the pest or weed control at 0.0008 mg [1] was 100% and the pest or weed control at 0.8 ppm (Ctenocephalides felis [3]) was 95%. The pest or weed control at 4 ppm (Ctenocephalides felis [3]) was 95%.
Compound `CN(C(=O)c1ccc(S(C)(=O)=O)cc1)c1cccc(C(=O)Nc2c(Br)cc(C(F)(C(F)(F)F)C(F)(F)F)cc2C(F)(F)F)c1` [Compound 7] has a pest or weed control at 0.0008 mg [1] of 100%, a pest or weed control at 1 µg/cm2, 1 µg/cm2 (Ctenocephalides felis [2]) of 95% and a pest or weed control at 4 ppm (Ctenocephalides felis [3]) of 95%.

Source: patent publication US11696913B2, “Prolonged ectoparasite-controlling agent for animal” (MITSUI CHEMICALS AGRO, INC., priority 2017, dated 2023)
